The text below walks through data of a melting point compilation (Tetko et al.; mined from patent text by program, amines drawn as free bases though some values may be those of a salt).

On to `O=C(O)/C=C/c1cnoc1-c1ccccc1`, for which the melting point (usually the temperature of the solid-liquid transition) lay in the range of 197 to 199 °C.
For the compound `O=C(O[C@H]1OCCN(Cc2ccccc2)[C@H]1c1ccc(F)cc1)c1cc(C(F)(F)F)cc(C(F)(F)F)c1`, the melting point was 102 to 103 °C.
The compound `O=C1NCC(Cc2ccccc2)C2=C1N=C1N=C(N3CCOCC3)NN1C2` (stereo not drawn) registered a melting point of 315 to 317 °C.
To `CCc1ccc(-c2cccc(-c3ccnc4c(C(=O)c5cccs5)cnn34)c2)cc1` belongs 117 to 119 °C; to `O=C1OC(=O)C(c2ccccc2)=C1Cl`, 82 to 83 °C; to `Cc1cc(C(=O)C(=O)O)c(O)cc1Oc1ccccc1`, 85 to 87 °C.
`CC(=O)CSc1ccc(Cl)cc1C(=O)O` displayed a melting point of 139 to 140 °C.
With `CCOC(=O)Nc1cc(C)cc(Nc2c3cccc(C)c3nc3c(C(=O)NCCN(C)C)cccc23)c1`, the melting point was in the range of 263 to 264 °C.
The compound `CNC(=O)[C@@H]1CCC[C@@H]1Nc1nc(Nc2ccc3c(c2)CCN(CCOC)CC3)ncc1Cl` (relative stereo) displayed a melting point of 176 °C.
With `O=Cc1cc2ccc3c4ccccc4ccc3c2o1`, the melting point stood at 123 °C.
As for `CN1CC(CCN2CCOCC2)Oc2ncccc2C1=S` (stereo not drawn), the melting point was in the range of 152 to 153 °C.
The result for `O=C(O)C1Cc2c(ccc3c(=O)c4c(F)cccc4oc23)O1` (stereo not drawn) reads 262 to 265 °C; that for `COc1cc(OC)nc(C(C)(C#N)c2cccc(Cl)c2)n1` (stereo not drawn), 89 to 93 °C.
In turn, `CCCc1cccc2[nH]c(C(=O)OCC)cc(=O)c12` had a melting point of 153 to 154 °C.
Regarding `O=C(Cc1ccc(Cl)cc1)Nc1cccc(-n2nc(C(F)(F)F)cc2C(F)(F)F)c1`, the melting point lay within 209 to 211 °C.
The result for `O=C(Cc1ccccc1Br)NC1CCC1` reads 159 to 161 °C; that for `CC(C)(C)C(NC(=O)Cc1ccc(Cl)cc1)NC(=NC#N)Nc1cccnc1Cl` (stereo not drawn), 174 to 175 °C.
As for `CCCOc1ccc2c(c1)C(=O)C=C2c1ccc2c(c1)OCO2`, the melting point was 90 to 93 °C.
To `CCC(=O)Nc1ccc(Oc2cccc(OC)c2)cc1` belongs 79 to 81 °C; to `O=C(Nc1ccc(NCc2ccccc2)cc1)C(=O)N1CCC(Cc2ccccc2)CC1`, 126 to 128 °C.
Compound `O=c1cc(-c2nc[nH]n2)oc2ccccc12` displayed a melting point of 210 °C.
For `CCc1cc2c(s1)SCCc1cc(=O)n(C)nc1-2`, the melting point lay in the range of 168 to 170 °C.
The result for `O=C(Nc1cc(C(F)(F)F)cc(C(F)(F)F)c1)Nc1cc(C(F)(F)F)ccc1Oc1ccccc1C(=O)O` reads 229 to 231 °C; that for `Cc1cc(-c2cn(-c3cccc(OCCn4ccnc4)c3)c3ncnc(N)c23)ccc1OCc1ccccc1`, 158 to 160 °C.
The result for `N#CC=C1CCN(c2ccc(N3C[C@H](CNC(=O)CC#N)OC3=O)cc2F)CC1` reads 150 to 152 °C; that for `COCOc1ccccc1-c1cc(-c2cccc(C(=O)NC3CCCN(C(=O)OC(C)(C)C)C3)c2)c(C#N)c(NC(=O)c2cccs2)n1` (stereo not drawn), 167 to 168 °C; that for `CCOc1nn(-c2ccc(C(F)(F)F)cn2)cc1CCCOc1cccc(C(C)(C)C(=O)O)c1`, 131 to 132 °C.
For the compound `CC1C(=O)N(c2ccccc2O)Sc2ccccc21` (stereo not drawn), the melting point was 162 to 164 °C.
To `O=NCNC1=Nc2ccccc2N(c2ccccc2)C(=O)C1` belongs 139 to 140 °C; to `Cc1nn(C)c2c1N=C(C(C)C)N1CC(C)N=C21` (stereo not drawn), 96 to 97 °C.
As for `CN1C(=O)CCCc2cc(Nc3ncc(Cl)c(Nc4ccccc4C(=O)NCCO)n3)ccc21`, the melting point was 190 to 194 °C.
The result for `CCNC(=O)ON=C1CCOc2ccccc21` reads 110 to 111 °C; that for `CC12CCC(=O)C=C1CCC(=Cc1cccs1)C2=O` (stereo not drawn), 107 °C.
Compound `C#CCOc1cccnc1Cl` showed a melting point of 78 to 79 °C.
The result for `CCN1CCC/C1=C\c1nc(-c2ccc(F)cc2)c(-c2ccncc2)n1CCCc1ccccc1` reads 127 to 128 °C; that for `Fc1cccc(Cl)c1COc1cccnc1NC(=S)Nc1ccc(Cl)cc1`, 162 to 164 °C.
The result for `CC(=O)c1ccc(C2CC(C)(C)CC(C)(C)C2)cc1` reads 54 °C; that for `O=C(O)CC1(O)CCC(N2CCN(CCNc3ccncc3)CC2)CC1` (stereo not drawn), 238 to 240 °C.
To `COc1cc(OC)nc(NC(=O)NS(=O)(=O)c2cccc3c2SC(C)(C)C3)n1` belongs 190 to 192 °C; to `COc1ccc2cc(-c3cnccn3)ccc2n1`, 130 to 132 °C.
`C#CCn1c(C#N)ccc1-c1ccc2c(c1)C(C)(C)OC(=O)N2` showed a melting point of 222 to 224 °C.
`COc1cc2ncnc(N3CCc4ccc(-c5ccccc5)cc43)c2cc1OC`: the melting point lay within 175 to 177 °C.
To `COc1cc2nc(C)[nH]c(=O)c2cc1OCCCN1CCOCC1` belongs 236 to 238 °C; to `Cc1ccc(S(=O)(=O)N(c2ccc(Cl)cc2C(N)=O)C(C)C)cc1`, 177 to 178 °C; to `O=C(NCc1cccnc1)c1ccc2n1Cc1ccccc1N(C(=O)Cc1ccc(Cl)cc1)C2`, 83 °C.
For `COc1ccc(CNc2nnc(N3CCC(O)C3)c3ccc(Cl)cc23)cc1Cl` (stereo not drawn), the melting point fell in the range of 191 to 193 °C.
For `CCCCCCCCCCCCCCCCCC(=O)Oc1cc(C)c(O)c(C(C)(C)C)c1`, the melting point lay within 64 to 65.5 °C.
Compound `CCNC(=O)c1sc(Oc2ccc3c(c2)OCO3)c2c1CCc1cnn(C)c1-2` returned a melting point of 138 to 139 °C.
To `Cc1ccc(N=CN(C)SN(C)c2ccccc2)c(C)c1` belongs 72 to 73.5 °C.
The result for `CCCCC1(C(=O)N[C@@H](Cc2ccc(NC(=O)c3c(Cl)cccc3Cl)cc2)C(=O)OC)CCCC1` reads 193 to 196 °C; that for `CCNC1(C(N)=O)C=C2C(=Nc3ccccc32)C=N1` (stereo not drawn), 233 to 236 °C.
In turn, `CCC1c2cc(OC)c(OC)cc2C(C=Cc2ccc(N)cc2)=NN(C(C)=O)C1C` (stereo not drawn) came in with a melting point of 104 to 106 °C.
On to `Cc1cc(SC(C)C)c(NC(=O)CCCSc2nc3ccccc3s2)c(SC(C)C)n1`, for which the melting point is 116 to 117 °C.
To `Cc1ccc(-c2cc(-c3ccccc3)cc3c2OC(CN)C3)cc1` (stereo not drawn) belongs 159 to 162 °C.
The compound `CC(N)=NS(=O)(=O)C=Cc1c(Cl)cccc1Cl` showed a melting point of 154 to 158 °C.
The result for `Cc1nnc2n1-c1ccc(Br)cc1C(c1ccccc1Cl)=CC2` reads 250 to 252 °C.
Regarding `CC(C)CCNCCCN1C(=O)C2(COc3cc4c(cc32)CCO4)c2ccccc21` (stereo not drawn), the melting point was in the range of 98 to 101 °C.
Turning to `COCc1ccccc1-c1ccc(C(=O)O)cc1`, the melting point fell in the range of 164 to 166 °C.
To `COC(=O)c1c(F)cc(OCCNC(=O)C2Cc3ccccc3N2S(=O)(=O)c2ccc(-c3cccc(C(F)(F)F)c3)cc2)cc1F` (stereo not drawn) belongs 68 to 71 °C; to `C=C(C(=O)c1ccc(C(=O)OC)cc1)c1cc(OC)c(OC)c(-c2cccs2)c1`, 102 to 103 °C.
To `COc1ccc(/C=C/c2cc(/C=C/c3ccc4cc[nH]c4c3)n[nH]2)c(OCc2ccccn2)c1` belongs 107 to 115 °C.
To `COCCN1CCc2cc(Nc3ncc(Cl)c(Nc4ccccc4NS(C)(=O)=O)n3)c(OC)cc2CC1` belongs 107 to 112 °C.
In turn, `O=c1nc(NCc2ccccc2)n2c3c1cnn3C(c1cccc(C(F)(F)F)c1)=CC2` came in with a melting point of 220 to 224 °C.
As for `CCC1(O)CSC(=S)N1c1cccc(C)n1` (stereo not drawn), the melting point is 118 °C.
Turning to `CCCC[C@H](NC(=O)[C@H](COC(C)(C)C)NC(=O)OCc1ccccc1)C(=O)CSCc1ccco1`, the melting point is 71 to 73 °C.
To `O=C1CCC(N2C(=O)c3cccc(OCc4ccc(CN5CCN(S(=O)(=O)C(F)(F)F)CC5)cc4)c3C2=O)C(=O)N1` (stereo not drawn) belongs 229 to 231 °C; to `NC(=O)C1(c2ccc(C#Cc3ccccc3)cc2)CC1`, 174 to 176 °C; to `COC(=O)Cc1cn(-c2ccccc2)nc1OCc1ccc(OCc2nc(-c3ccccc3)oc2C)cc1`, 113 to 114 °C.
The result for `COc1cc(C)c(C(=O)c2c(Cl)cccc2Cl)c(O)c1OC` reads 161 °C.
The result for `NC(=O)c1cnn2c(=O)n(CCCl)nnc12` reads 193 to 194 °C; that for `CCOc1ccc2[nH]c3c(c2c1)C[C@@](C)(C(=O)OC)N[C@@H]3c1cccc(O)c1` (racemic), 173 to 175 °C.
Regarding `O=C(NCCN1CCC(Nc2nc3ccccc3n2Cc2ccc(F)cc2)CC1)c1ccc(F)cc1`, the melting point was 194 °C.
For `CN1CCC(c2nn(C(=O)c3ccc(F)cc3)c3ccccc23)CC1`, the melting point fell in the range of 132 to 133 °C.
As for `CC(O)c1cc(I)c(O)c(Cl)n1` (stereo not drawn), the melting point was in the range of 114 to 116 °C.
The result for `COc1ccc(C(=O)Oc2ccc(COc3ccc4c(c3)CCC(CN(C)C)C4)cc2)cc1` (stereo not drawn) reads 119 to 121 °C; that for `O=C(Nc1cccc(-c2ccccc2)c1)Nc1cccc2[nH]ccc12`, 213 to 215 °C.
On to `CNC(=Nc1cccc(CN(C)C)n1)NC#N`, for which the melting point was 180 to 181 °C.
To `COc1ccc2c(c1)c(=O)c(S(=O)(=O)N(C)C)cn2C` belongs 199 to 201 °C; to `COc1cc(C(O)c2cnc3ccccc3c2)ccc1OCc1ccccc1` (stereo not drawn), 124 to 125 °C; to `CC(C#N)c1coc2cc(I)ccc12` (stereo not drawn), 71 to 72 °C.
To `O=C1C[N+]([O-])=C(c2ccccc2F)c2cc(Cl)ccc2N1CC(O)CO` (stereo not drawn) belongs 165 to 166 °C; to `CC(C)(C)OC(=O)CCN1CCC(O)(c2ccc(O)cc2CO)CC1`, 68 to 70 °C; to `COc1ccc2c(CC#N)c[nH]c2c1`, 100 °C.
Compound `Cc1cc(CNC(=O)c2sc(N3C[C@@H](C)N(Cc4ccc(F)cc4)C3=O)nc2C)[nH]n1` gave a melting point of 215 to 216 °C.
As to `OCC(=C(c1ccc(F)cc1)c1ccc(F)cc1)n1cnnn1`, the melting point lay in the range of 152 to 154 °C.
`Cc1nc2ncnn2c(N2CCC(C)CC2)c1C1CCCC1` yielded a melting point of 145 °C.
The result for `CC(NC(=O)Cc1cc(F)cc(F)c1)C(=O)C1(N)N=C(c2ccccc2)c2cc(Cl)ccc2N(C)C1=O` (stereo not drawn) reads 126 to 130 °C; that for `CCN(CC)C(=O)C=Cc1ccccc1`, 65 °C.
